Measurements published in US7084127B2, “C2,5′-disubstituted and N6, C2,5′-trisubstituted adenosine derivatives and their different uses” (Universiteit Leiden, priority 2001, dated 2006).
Like-named read-outs stand apart in the source and are kept apart here. Values belong to the compound of their own block, whether it stands above or below them.

Legend:
[1] = molecular target: T1, A2A receptor in rat striatum (Rattus norvegicus, UniProt P30543); assay: Radioligand binding, displacement of [3H]ZM241385 from rat striatal membranes;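 note: displacement assays run in the absence of GTP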
T1 construct: the A2A receptor in rat striatum; from tissue; host or cells: rat striatum
T1 sequence (P30543 whole entry): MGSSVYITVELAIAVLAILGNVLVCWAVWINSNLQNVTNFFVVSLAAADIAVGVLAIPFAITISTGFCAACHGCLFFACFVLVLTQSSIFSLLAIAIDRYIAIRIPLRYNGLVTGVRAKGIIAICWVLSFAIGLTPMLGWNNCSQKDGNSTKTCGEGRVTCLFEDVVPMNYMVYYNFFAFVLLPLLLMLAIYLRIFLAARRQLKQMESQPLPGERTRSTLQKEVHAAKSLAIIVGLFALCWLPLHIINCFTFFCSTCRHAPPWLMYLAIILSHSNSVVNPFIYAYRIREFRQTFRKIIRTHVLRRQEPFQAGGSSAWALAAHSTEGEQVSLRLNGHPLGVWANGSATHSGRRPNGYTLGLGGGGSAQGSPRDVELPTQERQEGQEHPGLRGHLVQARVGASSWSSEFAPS
Method: (§1) Incubations were carried out for 1 hr at 37° C. and were terminated by rapid filtration over Whatman GF/B filters, using a Brandell cell harvester (Brandell, Gaithersburg, Md.). Tubes were washed three times with 3 ml of buffer. Radioactivity was determined in a Beckman 5500B γ-counter. Nonspecific binding was determined in the presence of 10^−5 M R-PIA.
(§2) All compounds were tested in radioligand binding assays to determine their affinities for the adenosine A1 receptor in rat brain cortex, the A2A receptor in rat striatum and the human A3 receptor as expressed in HEK 293 cells (Table 2). […] AB-MECA, an A3 receptor agonist, was also used. Displacement experiments were performed in the absence of GTP.

[2] = molecular target: T2, human adenosine A1 receptors expressed in CHO cells (Homo sapiens, UniProt P30542); assay: cAMP assay A1 (inhibition of forskolin-induced cAMP production); type: cell-based; conditions: for % inhib. A1 of forskolin-induced cAMP: compared to reference full agonist CPA (10 μM) in A1 CHO cells, tested at ±100 × Ki, ±SEM, n = 3, forskolin 10 μM
T2 construct: expressed in transfected cells; host or cells: CHO cells
T2 sequence (P30542 1-326): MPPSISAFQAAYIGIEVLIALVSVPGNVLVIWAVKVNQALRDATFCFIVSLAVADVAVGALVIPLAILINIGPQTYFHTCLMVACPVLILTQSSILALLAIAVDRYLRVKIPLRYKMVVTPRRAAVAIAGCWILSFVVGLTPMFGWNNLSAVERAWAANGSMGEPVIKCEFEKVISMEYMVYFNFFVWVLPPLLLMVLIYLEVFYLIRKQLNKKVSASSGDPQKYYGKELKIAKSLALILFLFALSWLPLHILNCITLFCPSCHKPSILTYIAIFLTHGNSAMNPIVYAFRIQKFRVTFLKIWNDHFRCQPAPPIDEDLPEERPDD
Method: cAMP assay A1 and A3 CHO cells expressing either the human adenosine A1 or A3 receptor were grown overnight as a monolayer in 24 wells tissue culture plates (400 μl/well; 2×10^5cells/well). cAMP generation was performed in Dulbecco's Modified Eagles Medium (DMEM)/N-2-hydroxyethylpiperazin-N′-2-ethansulfonic acid (HEPES) buffer (0.60 g HEPES/50 ml DMEM pH 7.4). […] After incubation for 40 minutes at 37° C., 100 μl forskolin (final concentration 10 μM) was added. After 15 minutes at 37° C., the reaction was terminated by removing the medium and adding 200 μL 0.1 M HCl. Wells were stored at −20° C. until assay
The amounts of cAMP were determined after a protocol with cAMP binding protein^28 with the following minor modifications. As a buffer was used 150 mM K2HPO4/10 mM EDTA/0.2% Bovine Serum Albumine (BSA) at pH 7.5. Samples (20 μl+30 μl 0.1 M HCl) were incubated for at least 2.5 hours at 0° C. before filtration over Whatman GF/B filters. Filters were additionally rinsed with 2×2 ml TrisHCl buffer (pH 7.4, 4° C.). Filters were counted in Packard Emulsifier Safe scintillation fluid (3.5 ml) after 24 hours of extraction. […]

[3] = molecular target: T3, human A3 receptor as expressed in HEK 293 cells (Homo sapiens, UniProt P0DMS8); assay: Radioligand binding, displacement of [125I]AB MECA, HEK 293 cell membranes
T3 construct: expressed in transfected cells; host or cells: HEK 293 cells (membrane suspension)
T3 sequence (P0DMS8 1-318): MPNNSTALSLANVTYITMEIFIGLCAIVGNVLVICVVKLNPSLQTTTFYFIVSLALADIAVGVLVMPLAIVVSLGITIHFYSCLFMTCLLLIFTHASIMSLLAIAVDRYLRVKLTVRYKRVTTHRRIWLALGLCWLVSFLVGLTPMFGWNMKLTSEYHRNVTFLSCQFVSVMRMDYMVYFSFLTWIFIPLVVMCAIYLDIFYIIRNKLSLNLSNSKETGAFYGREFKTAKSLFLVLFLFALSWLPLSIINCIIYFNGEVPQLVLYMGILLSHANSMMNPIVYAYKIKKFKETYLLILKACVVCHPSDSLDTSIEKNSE
Method: as §1, §2

[4] = molecular target: T4, human adenosine A2A receptors expressed in CHO cells (Homo sapiens, UniProt P29274); assay: cAMP assay A2A (stimulation of cAMP production); type: cell-based
T4 construct: expressed in transfected cells; host or cells: CHO cells
T4 sequence (P29274 whole entry): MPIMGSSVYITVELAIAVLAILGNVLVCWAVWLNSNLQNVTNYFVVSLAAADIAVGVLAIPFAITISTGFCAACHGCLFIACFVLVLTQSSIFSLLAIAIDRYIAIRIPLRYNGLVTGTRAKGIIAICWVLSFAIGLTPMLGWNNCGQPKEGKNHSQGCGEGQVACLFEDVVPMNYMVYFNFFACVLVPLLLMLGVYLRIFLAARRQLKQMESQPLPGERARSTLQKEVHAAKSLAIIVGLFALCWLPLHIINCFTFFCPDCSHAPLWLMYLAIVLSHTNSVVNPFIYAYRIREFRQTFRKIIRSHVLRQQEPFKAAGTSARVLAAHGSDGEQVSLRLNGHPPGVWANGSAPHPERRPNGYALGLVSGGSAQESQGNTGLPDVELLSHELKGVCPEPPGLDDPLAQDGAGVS
Method: cAMP assay A2A CHO cells expressing human adenosine A2A receptors were grown overnight as a monolayer in 24 wells tissue culture plates (400 μL/well; 2×10^5 cells/well). cAMP generation was performed in Dulbecco's Modified Eagles Medium (DMEM)/N-2-hydroxyethylpiperazin-N′-2-ethanesulfonic acid (HEPES) buffer (0.60 g HEPES/50 mL DMEM pH 7.4). To each well, washed three times with DMEM/HEPES buffer (250 μλ), 100 μl DMEM/HEPES buffer, 100 μl adenosine deaminase (final concentration 5 IU/ml) and 100 μl of a mixture of rolipram and cilostamide (final concentration 50 μM each) were added. After incubation for 40 minutes at 37° C., 100 μl agonist was added. […] After 15 minutes at 37° C., the reaction was terminated by removing the medium and adding 200 μl 0.1 M HCl. Wells were stored at −20° C. until assay.
The amounts of cAMP were determined after a protocol with cAMP binding protein^36 with the following minor modifications. As a buffer was used 150 mM K2HPO4/10 mM EDTA/0.2% Bovine Serum Albumine (BSA) at pH 7.5. Samples (20 μl+30 μl 0.1 M HCl) were incubated for at least 2.5 hours at 0° C. before filtration over Whatman GF/B filters. […] Filters were counted in Packard Emulsifier Safe scintillation fluid (3.5 ml) after 24 hours of extraction.
Data Analysis Apparent Ki and EC50 values were computed from the displacement curves by non-linear regression of the competition curves with the software package Prism (Graph Pad, San Diego, Calif.)

[5] = molecular target: T5, adenosine A1 receptor in rat brain cortex (Rattus norvegicus, UniProt P25099); assay: Radioligand binding, displacement of [3H]DPCPX from rat cortical membranes; conditions: ligand 10^−5 M
T5 construct: the adenosine A1 receptor in rat brain cortex; from tissue; host or cells: rat brain cortex
T5 sequence (P25099 1-326): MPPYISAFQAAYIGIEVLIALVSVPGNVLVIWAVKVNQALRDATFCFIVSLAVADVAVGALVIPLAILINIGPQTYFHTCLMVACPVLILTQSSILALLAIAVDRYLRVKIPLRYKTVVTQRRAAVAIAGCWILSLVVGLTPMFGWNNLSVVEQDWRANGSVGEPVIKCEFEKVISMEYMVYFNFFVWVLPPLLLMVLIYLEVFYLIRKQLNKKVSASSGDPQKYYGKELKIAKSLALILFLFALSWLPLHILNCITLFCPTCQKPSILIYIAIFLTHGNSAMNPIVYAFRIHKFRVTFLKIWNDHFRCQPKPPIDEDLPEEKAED
Method: as §1, §2

[6] = molecular target: T6, human adenosine A3 receptor (Homo sapiens, UniProt P0DMS8); assay: cAMP assay A3 (inhibition of forskolin-induced cAMP production); type: cell-based
T6 construct: expressed in transfected cells; HEK 293 cells according to b145 and b219
T6 sequence (P0DMS8 1-318): T3 sequence (P0DMS8 1-318)
Method: cAMP assay A3 CHO cells expressing the human adenosine A3 receptor were grown overnight as a monolayer in 24 wells tissue culture plates (400 μl/well; 2×10^5 cells/well). cAMP generation was performed in Dulbecco's Modified Eagles Medium (DMEM)/N-2-hydroxyethylpiperazin-N′-2-ethansulfonic acid (HEPES) buffer (0.60 g HEPES/50 ml DMEM pH 7.4). […] After incubation for 40 minutes at 37° C., 100 μl forskolin (final concentration 10 μM) was added. After 15 minutes at 37° C., the reaction was terminated by removing the medium and adding 200 μl 0.1 M HCl. Wells were stored at −20° C. until assay. The amounts of cAMP were determined after a protocol with cAMP binding protein^36 with the following minor modifications. As a buffer was used 150 mM K2HPO4/10 mM EDTA/0.2% Bovine Serum Albumine (BSA) at pH 7.5. Samples (20 μl+30 μl 0.1 M HCl) were incubated for at least 2.5 hours at 0° C. before filtration over Whatman GF/B filters. […] Filters were counted in Packard Emulsifier Safe scintillation fluid (3.5 ml) after 24 hours of extraction.
All compounds were also tested in functional assays.
The ability of the compounds to inhibit forskolin-stimulated (10 μM) cAMP production via the adenosine A3 receptor was also studied.
The amounts of cAMP were determined after a protocol with cAMP binding protein^28 with the following minor modifications. As a buffer was used 150 mM K2HPO4/10 mM EDTA/0.2% Bovine Serum Albumine (BSA) at pH 7.5. Samples (20 μl+30 μl 0.1 M HCl) were incubated for at least 2.5 hours at 0° C. before filtration over Whatman GF/B filters. […] Filters were counted in Packard Emulsifier Safe scintillation fluid (3.5 ml) after 24 hours of extraction.

[7] = [3H]ZM241385, rat striatal membranes
[8] = [3H]ZM241385, rat striatal membranes, ligand 10^−5 M
[9] = cAMP production, human A2A in CHO cells
[10] = compared to full agonist CGS 21680

Compound: 5′-Deoxy-2-iodo-5′-methylthioadenosine [Compound 33]
Ki [1, 7]: 3900 ± 580 nM

Compound: OC[C@H]1O[C@@H](n2cnc3c(NC4CCCC4)nc(Cl)nc32)[C@H](O)[C@@H]1O [2-Cl-CPA, reference compound]
% displacement at 10^−5 M A2A [1, 8]: 53.1%

Compound: OC[C@H]1O[C@@H](n2cnc3c(NC4CCCC4)ncnc32)[C@H](O)[C@@H]1O [CPA, reference compound]
inhibition at 10 µM ([2]; CHO, read-out: % inhib. A1 of forskolin-induced cAMP): 69 ± 3%
% displacement at 10^−5 M A2A [1]: 45.9%
Ki ([3]; [125I]AB MECA, human A3 receptor in HEK 293 cells, read-out: Ki A3): 281 ± 56 nM

Compound: CNC(=O)[C@H]1O[C@@H](n2cnc3c(NCc4cccc(I)c4)nc(Cl)nc32)[C@H](O)[C@@H]1O [Cl-IB-MECA, reference compound]
% displacement at 10^−5 M A2A [1, 8]: 23.5%

Compound: Nc1nc(I)nc2c1ncn2[C@@H]1O[C@H](CO)[C@@H](O)[C@H]1O [Compound 1, 2-Iodoadenosine]
Emax ([4]; CHO, read-out: Emax (%) A2A): 112 ± 7%
EC50 [4, 9]: 5.4 ± 0.7 µM
% displacement at 10^−5 M A1 [5]: 36.1%

Compound: CC(C)CC=NNc1nc(N)c2ncn([C@@H]3O[C@H](CO)[C@@H](O)[C@H]3O)c2n1 [Compound 3, 2-(N′-3-Methyl-1-butylidenehydrazino)adenosine]
agonist behaviour, inhibition of forskolin-induced cAMP via adenosine A3 receptor ([6]; compared to reference full agonist Cl-IB-MECA): partial agonist
Emax at 3 µM ([6]; read-out: Emax (%) A3): 24%
Ki [1, 7]: 20 ± 7 nM
Ki [3]: 38.3 ± 3.3 nM
Emax ([4]; CHO; read-out: Emax (%) A2A): 92 ± 2%
EC50 [4, 9]: 1.1 ± 0.2 µM
agonist behaviour, cAMP production via adenosine A2A receptor [4, 10]: full agonists
% displacement at 10^−5 M A1 [5]: 18.9%

Compound: CSC[C@H]1O[C@@H](n2cnc3c(N)nc(NN=CCC(C)C)nc32)[C@H](O)[C@@H]1O [Compound 45, 5′-Deoxy-2-(N′-3-methyl-1-butylidenehydrazino)-5′-methylthioadenosine]
Emax at 30 µM ([6]; read-out: Emax (%) A3): 41%
Ki [1, 7]: 220 ± 20 nM
Ki [3]: 253 ± 36 nM
Emax ([4]; CHO; read-out: Emax (%) A2A): 44 ± 4%
EC50 [4, 9]: 5 ± 0.6 µM
% displacement at 10^−5 M A1 [5]: 18.9%

Compound: CCSC[C@H]1O[C@@H](n2cnc3c(N)nc(NN=CCC(C)C)nc32)[C@H](O)[C@@H]1O [Compound 46, 5′-Deoxy-2-(N′-3-methyl-1-butylidenehydrazino)-5′-ethylthioadenosine]
Emax at 100 µM ([6]; read-out: Emax (%) A3): 7%
Ki [1, 7]: 500 ± 40 nM
Ki [3]: 814 ± 132 nM
Emax ([4]; CHO; read-out: Emax (%) A2A): 101 ± 4%
EC50 [4, 9]: 7.5 ± 0.3 µM
agonist behaviour, cAMP production via adenosine A2A receptor [4, 10]: full agonists
% displacement at 10^−5 M A1 [5]: 21.2%

Compound: CCCSC[C@H]1O[C@@H](n2cnc3c(N)nc(NN=CCC(C)C)nc32)[C@H](O)[C@@H]1O [Compound 47, 5′-Deoxy-2-(N′-3-methyl-1-butylidenehydrazino)-5′-propylthioadenosine]
Emax at 100 µM ([6]; read-out: Emax (%) A3): 16%
Ki [1, 7]: 1500 ± 280 nM
Ki [3]: 697 ± 31 nM
Emax ([4]; CHO; read-out: Emax (%) A2A): 126 ± 3%
EC50 [4, 9]: 12.9 ± 0.9 µM
agonist behaviour, cAMP production via adenosine A2A receptor [4, 10]: full agonists
% displacement at 10^−5 M A1 [5]: 22.0%

Compound: CC(C)CC=NNc1nc(N)c2ncn([C@@H]3O[C@H](CSC(C)C)[C@@H](O)[C@H]3O)c2n1 [Compound 48, 5′-Deoxy-2-(N′-3-methyl-1-butylidenehydrazino)-5′-isopropylthioadenosine]
Emax at 30 µM ([6]; read-out: Emax (%) A3): 26%
Ki [1, 7]: 1800 ± 230 nM
Ki [3]: 409 ± 118 nM
Emax ([4]; CHO; read-out: Emax (%) A2A): 56 ± 1%
EC50 [4, 9]: 10.4 ± 1 µM
% displacement at 10^−5 M A1 [5]: 13.0%

Compound: CCOC[C@H]1O[C@@H](n2cnc3c(NC4CCCC4)ncnc32)[C@H](O)[C@@H]1O [Compound 73, N^6-cyclopentyl-5′-O-ethyladenosine]
% inhib. A1 of forskolin-induced cAMP [2]: 69 ± 6%
% displacement at 10^−5 M A2A [1, 8]: 33.9%

More lines, now with the values ahead:

Ki [1, 7]: 60 ± 20 nM
EC50 [4, 9]: 0.7 ± 0.1 µM
Emax (%) A2A ([4]; compared to Emax of CGS 21680 (10 μM) in A2A CHO cells, ±SEM, n = 3; n.a. = not active, no cAMP produced at 30 μM (35) or 100 μM): 45 ± 6%
Compound: CCCCC#Cc1nc(N)c2ncn([C@@H]3O[C@H](CSC)[C@@H](O)[C@H]3O)c2n1 [Compound 37]

% inhib. A1 of forskolin-induced cAMP [2]: 74 ± 4%
Ki [1, 7]: 366 ± 109 nM
Compound: COC[C@H]1O[C@@H](n2cnc3c(NC4CCCC4)ncnc32)[C@H](O)[C@@H]1O [Compound 67, N^6-cyclopentyl-5′-O-methyladenosine]

% inhib. A1 of forskolin-induced cAMP [2]: 53 ± 10%
Ki [1, 7]: 373 ± 80 nM
Compound: COC[C@H]1O[C@@H](n2cnc3c(NCc4cccc(I)c4)ncnc32)[C@H](O)[C@@H]1O [Compound 68, N^6-(3-iodobenzyl)-5′-O-methyladenosine]

% inhib. A1 of forskolin-induced cAMP [2]: 73 ± 4%
Ki [1, 7]: 1390 ± 140 nM
Compound: COC[C@H]1O[C@@H](n2cnc3c(NC4CCCC4)nc(Cl)nc32)[C@H](O)[C@@H]1O [Compound 70, N^6-Cyclopentyl-2-chloro-5′-O-methyladenosine]

% inhib. A1 of forskolin-induced cAMP [2]: 37 ± 15%
Ki [1, 7]: 527 ± 21 nM
Compound: COC[C@H]1O[C@@H](n2cnc3c(NCc4cccc(I)c4)nc(Cl)nc32)[C@H](O)[C@@H]1O [Compound 71, N^6-(3-iodobenzyl)-2-Chloro-5′-O-methyladenosine]

% inhib. A1 of forskolin-induced cAMP [2]: 6 ± 21%
% displacement at 10^−5 M A2A [1, 8]: 40.4%
Compound: CCOC[C@H]1O[C@@H](n2cnc3c(NCc4cccc(I)c4)ncnc32)[C@H](O)[C@@H]1O [Compound 74, N^6-(3-Iodobenzyl)-5′-O-Ethyladenosine]

% inhib. A1 of forskolin-induced cAMP [2]: 62 ± 6%
Ki [1, 7]: 1730 ± 700 nM
Compound: CCOC[C@H]1O[C@@H](n2cnc3c(NC4CCCC4)nc(Cl)nc32)[C@H](O)[C@@H]1O [Compound 76, N^6-cyclopentyl-2-Chloro-5′-O-ethyladenosine]

% inhib. A1 of forskolin-induced cAMP [2]: −72 ± 38 %
Ki [1, 7]: 848 ± 60 nM
Compound: CCOC[C@H]1O[C@@H](n2cnc3c(NCc4cccc(I)c4)nc(Cl)nc32)[C@H](O)[C@@H]1O [Compound 77, N^6-(3-iodobenzyl)-2-Chloro-5′-O-ethyladenosine]

% inhib. A1 of forskolin-induced cAMP [2]: 62 ± 4%
% displacement at 10^−5 M A2A [1, 8]: 24.3%
Compound: O[C@@H]1[C@H](O)[C@@H](COC2CC2)O[C@H]1n1cnc2c(NC3CCCC3)ncnc21 [Compound 79, N^6-Cyclopentyl-5′-O-cyclopropyladenosine]

% inhib. A1 of forskolin-induced cAMP [2]: −104 ± 22 %
% displacement at 10^−5 M A2A [1, 8]: 43.7%
Compound: O[C@@H]1[C@H](O)[C@@H](COC2CC2)O[C@H]1n1cnc2c(NCc3cccc(I)c3)ncnc21 [Compound 80, N^6-(3-Iodobenzyl)-5′-O-cyclopropyladenosine]

% inhib. A1 of forskolin-induced cAMP [2]: 43 ± 9%
% displacement at 10^−5 M A2A [1, 8]: 34.6%
Compound: O[C@@H]1[C@H](O)[C@@H](COC2CC2)O[C@H]1n1cnc2c(NC3CCCC3)nc(Cl)nc21 [Compound 82, N^6-cyclopentyl-2-Chloro-5′-O-cyclopropyladenosine]

% inhib. A1 of forskolin-induced cAMP [2]: −118 ± 41 %
% displacement at 10^−5 M A2A [1, 8]: 38.7%
Compound: O[C@@H]1[C@H](O)[C@@H](COC2CC2)O[C@H]1n1cnc2c(NCc3cccc(I)c3)nc(Cl)nc21 [Compound 83, N^6-(3-Iodobenzyl)-2-chloro-5′-O-cyclopropyladenosine]

% inhib. A1 of forskolin-induced cAMP [2]: 61 ± 2%
Compound: N^6-Cyclopentyl-5′-O-Cyclopropyladenosine [Compound 78]
